# Test results from paper PMC8524670 (Pharmacology Research & Perspectives, 2021).
# Counter-ions that a name gives are not always drawn.
# Legend:
# P-gp [1] = molecular target: T1, P-gp (Homo sapiens, UniProt P08183); assay: P-gp inhibition in Caco-2 cells; type: in vitro ADME; conditions: human, Caco-2, probe digoxin
# OATP1B1 = molecular target: T2, OATP1B1 (Homo sapiens, UniProt Q9Y6L6); assay: SLC transportation assay in HEK293 cells; type: in vitro ADME; conditions: control substrate, 20 µM
# T2 sequence (Q9Y6L6 1-691): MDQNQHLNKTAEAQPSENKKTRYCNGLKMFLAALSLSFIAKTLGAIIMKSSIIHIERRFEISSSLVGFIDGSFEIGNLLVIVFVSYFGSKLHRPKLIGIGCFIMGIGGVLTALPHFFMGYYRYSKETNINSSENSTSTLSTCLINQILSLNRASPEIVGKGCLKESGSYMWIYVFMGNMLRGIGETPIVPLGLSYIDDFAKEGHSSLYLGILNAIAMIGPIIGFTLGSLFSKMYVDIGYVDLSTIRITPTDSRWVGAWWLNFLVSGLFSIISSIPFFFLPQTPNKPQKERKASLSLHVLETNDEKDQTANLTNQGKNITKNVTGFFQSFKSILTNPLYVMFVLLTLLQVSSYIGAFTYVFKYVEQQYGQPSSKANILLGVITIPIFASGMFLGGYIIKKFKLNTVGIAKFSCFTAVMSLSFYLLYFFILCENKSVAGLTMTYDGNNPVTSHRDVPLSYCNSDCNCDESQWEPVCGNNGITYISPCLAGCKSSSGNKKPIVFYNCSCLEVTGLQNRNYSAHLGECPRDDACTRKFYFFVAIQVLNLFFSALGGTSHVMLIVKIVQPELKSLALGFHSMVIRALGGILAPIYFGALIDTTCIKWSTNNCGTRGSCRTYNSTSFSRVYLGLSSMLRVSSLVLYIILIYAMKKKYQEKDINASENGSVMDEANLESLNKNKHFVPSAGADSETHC
# OATP1B3 = molecular target: T3, OATP1B3 (Homo sapiens, UniProt Q9NPD5); assay: SLC transportation assay in HEK293 cells; type: in vitro ADME; conditions: control substrate, 20 µM
# T3 sequence (Q9NPD5 1-702): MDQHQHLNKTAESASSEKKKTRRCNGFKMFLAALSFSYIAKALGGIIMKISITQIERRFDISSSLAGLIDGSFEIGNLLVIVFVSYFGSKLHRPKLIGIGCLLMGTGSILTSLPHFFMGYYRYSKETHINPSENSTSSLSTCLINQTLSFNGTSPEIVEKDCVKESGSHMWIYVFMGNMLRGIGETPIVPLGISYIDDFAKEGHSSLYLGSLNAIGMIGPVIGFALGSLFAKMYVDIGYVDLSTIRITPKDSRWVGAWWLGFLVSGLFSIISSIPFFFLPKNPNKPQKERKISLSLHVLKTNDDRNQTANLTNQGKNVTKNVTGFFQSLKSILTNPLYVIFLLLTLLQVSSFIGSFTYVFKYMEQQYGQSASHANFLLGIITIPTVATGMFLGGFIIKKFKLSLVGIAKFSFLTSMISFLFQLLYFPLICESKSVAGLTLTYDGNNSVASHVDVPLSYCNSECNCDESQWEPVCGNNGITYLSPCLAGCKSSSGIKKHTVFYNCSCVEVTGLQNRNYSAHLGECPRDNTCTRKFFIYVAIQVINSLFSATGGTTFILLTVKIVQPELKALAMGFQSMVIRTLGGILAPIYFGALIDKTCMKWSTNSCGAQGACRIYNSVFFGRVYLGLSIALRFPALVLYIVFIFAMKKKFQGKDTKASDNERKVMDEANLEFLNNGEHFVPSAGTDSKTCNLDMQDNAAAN
# OAT3 [2] = molecular target: T4, OAT3 (Homo sapiens, UniProt Q8TCC7); assay: SLC transportation assay in HEK293 cells; type: in vitro ADME; conditions: control substrate, 20 µM
# T4 sequence (Q8TCC7 1-542): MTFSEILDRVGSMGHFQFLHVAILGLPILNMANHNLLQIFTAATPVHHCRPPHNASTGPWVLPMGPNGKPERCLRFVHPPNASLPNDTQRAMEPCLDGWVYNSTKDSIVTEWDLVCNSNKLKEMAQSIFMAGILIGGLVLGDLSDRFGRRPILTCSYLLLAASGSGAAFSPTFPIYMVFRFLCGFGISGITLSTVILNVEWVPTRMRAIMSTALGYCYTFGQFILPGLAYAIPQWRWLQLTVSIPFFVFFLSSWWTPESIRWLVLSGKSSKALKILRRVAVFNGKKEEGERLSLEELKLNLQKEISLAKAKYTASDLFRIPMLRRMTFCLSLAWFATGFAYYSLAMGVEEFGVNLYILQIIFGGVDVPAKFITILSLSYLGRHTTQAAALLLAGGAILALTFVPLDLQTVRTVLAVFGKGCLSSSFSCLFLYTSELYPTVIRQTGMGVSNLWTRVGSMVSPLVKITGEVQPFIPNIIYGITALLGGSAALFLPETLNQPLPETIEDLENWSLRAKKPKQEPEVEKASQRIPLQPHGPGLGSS
# OCT2 [3] = molecular target: T5, OCT2 (Homo sapiens, UniProt O15244); assay: SLC transportation assay in HEK293 cells; type: in vitro ADME; conditions: control substrate, 50 µM
# T5 sequence (O15244 1-555): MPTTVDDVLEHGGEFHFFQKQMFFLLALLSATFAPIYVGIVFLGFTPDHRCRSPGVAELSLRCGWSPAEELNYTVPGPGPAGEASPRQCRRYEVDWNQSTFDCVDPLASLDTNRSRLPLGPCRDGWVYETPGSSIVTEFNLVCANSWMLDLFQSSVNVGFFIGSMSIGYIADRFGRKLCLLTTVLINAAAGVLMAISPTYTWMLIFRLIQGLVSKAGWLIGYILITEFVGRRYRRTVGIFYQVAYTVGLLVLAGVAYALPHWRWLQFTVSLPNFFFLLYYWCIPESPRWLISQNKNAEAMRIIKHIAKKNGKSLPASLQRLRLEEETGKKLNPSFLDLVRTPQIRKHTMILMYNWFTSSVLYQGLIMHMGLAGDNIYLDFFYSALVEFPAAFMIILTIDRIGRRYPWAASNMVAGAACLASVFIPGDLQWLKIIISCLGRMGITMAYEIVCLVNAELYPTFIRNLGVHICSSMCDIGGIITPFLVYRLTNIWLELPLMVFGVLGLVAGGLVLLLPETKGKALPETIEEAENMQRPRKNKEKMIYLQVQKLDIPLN
# CYP1A2 = assay: in vitro; conditions: human, positive control omeprazole 50 µM
# OAT3 [4] = molecular target: T4, OAT3; assay: SLC inhibition assay in HEK293 cells; type: in vitro ADME; conditions: human, HEK293 cells overexpressing OAT3 (and MOCK cells), probe estrone sulfate
# OCT2 [5] = molecular target: T5, OCT2; assay: SLC inhibition assay in HEK293 cells; type: in vitro ADME; conditions: human, HEK293 cells overexpressing OCT2 (and MOCK cells), probe metformin
# CYP3A = conditions: cited from earlier work
# P-gp [6] = molecular target: T1, P-gp; conditions: healthy subjects; cited from earlier work
# CYP2B6 = assay: CYP induction in human hepatocytes; type: in vitro ADME; conditions: human, cryopreserved human hepatocytes
# human BCRP [7] = molecular target: T6, human BCRP (Homo sapiens, UniProt Q9UNQ0); assay: BCRP inhibition in vesicles; type: in vitro ADME; conditions: BCRP inhibition assay, buffer vehicle
# T6 sequence (Q9UNQ0 1-655): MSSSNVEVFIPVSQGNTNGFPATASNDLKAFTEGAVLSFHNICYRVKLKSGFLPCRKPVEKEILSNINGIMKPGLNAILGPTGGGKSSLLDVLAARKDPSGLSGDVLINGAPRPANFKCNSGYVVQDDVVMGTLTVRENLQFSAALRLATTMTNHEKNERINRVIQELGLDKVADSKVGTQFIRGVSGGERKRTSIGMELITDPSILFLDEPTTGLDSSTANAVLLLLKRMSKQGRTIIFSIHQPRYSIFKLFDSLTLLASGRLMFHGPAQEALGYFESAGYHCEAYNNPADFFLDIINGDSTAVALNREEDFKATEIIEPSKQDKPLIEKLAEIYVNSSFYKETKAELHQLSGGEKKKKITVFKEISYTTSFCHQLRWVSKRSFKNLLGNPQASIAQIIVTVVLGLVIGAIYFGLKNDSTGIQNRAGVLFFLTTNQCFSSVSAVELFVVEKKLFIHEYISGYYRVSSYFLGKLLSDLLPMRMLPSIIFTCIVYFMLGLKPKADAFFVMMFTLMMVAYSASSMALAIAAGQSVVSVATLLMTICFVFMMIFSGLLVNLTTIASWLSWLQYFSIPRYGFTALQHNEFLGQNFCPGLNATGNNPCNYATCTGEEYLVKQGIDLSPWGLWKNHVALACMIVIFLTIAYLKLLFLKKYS
# human BCRP [8] = molecular target: T6, human BCRP; assay: BCRP transportation in inside-out vesicles; type: in vitro ADME; conditions: BCRP vesicles, LFY 10 μM probe substrate
# T1 sequence (P08183 whole entry): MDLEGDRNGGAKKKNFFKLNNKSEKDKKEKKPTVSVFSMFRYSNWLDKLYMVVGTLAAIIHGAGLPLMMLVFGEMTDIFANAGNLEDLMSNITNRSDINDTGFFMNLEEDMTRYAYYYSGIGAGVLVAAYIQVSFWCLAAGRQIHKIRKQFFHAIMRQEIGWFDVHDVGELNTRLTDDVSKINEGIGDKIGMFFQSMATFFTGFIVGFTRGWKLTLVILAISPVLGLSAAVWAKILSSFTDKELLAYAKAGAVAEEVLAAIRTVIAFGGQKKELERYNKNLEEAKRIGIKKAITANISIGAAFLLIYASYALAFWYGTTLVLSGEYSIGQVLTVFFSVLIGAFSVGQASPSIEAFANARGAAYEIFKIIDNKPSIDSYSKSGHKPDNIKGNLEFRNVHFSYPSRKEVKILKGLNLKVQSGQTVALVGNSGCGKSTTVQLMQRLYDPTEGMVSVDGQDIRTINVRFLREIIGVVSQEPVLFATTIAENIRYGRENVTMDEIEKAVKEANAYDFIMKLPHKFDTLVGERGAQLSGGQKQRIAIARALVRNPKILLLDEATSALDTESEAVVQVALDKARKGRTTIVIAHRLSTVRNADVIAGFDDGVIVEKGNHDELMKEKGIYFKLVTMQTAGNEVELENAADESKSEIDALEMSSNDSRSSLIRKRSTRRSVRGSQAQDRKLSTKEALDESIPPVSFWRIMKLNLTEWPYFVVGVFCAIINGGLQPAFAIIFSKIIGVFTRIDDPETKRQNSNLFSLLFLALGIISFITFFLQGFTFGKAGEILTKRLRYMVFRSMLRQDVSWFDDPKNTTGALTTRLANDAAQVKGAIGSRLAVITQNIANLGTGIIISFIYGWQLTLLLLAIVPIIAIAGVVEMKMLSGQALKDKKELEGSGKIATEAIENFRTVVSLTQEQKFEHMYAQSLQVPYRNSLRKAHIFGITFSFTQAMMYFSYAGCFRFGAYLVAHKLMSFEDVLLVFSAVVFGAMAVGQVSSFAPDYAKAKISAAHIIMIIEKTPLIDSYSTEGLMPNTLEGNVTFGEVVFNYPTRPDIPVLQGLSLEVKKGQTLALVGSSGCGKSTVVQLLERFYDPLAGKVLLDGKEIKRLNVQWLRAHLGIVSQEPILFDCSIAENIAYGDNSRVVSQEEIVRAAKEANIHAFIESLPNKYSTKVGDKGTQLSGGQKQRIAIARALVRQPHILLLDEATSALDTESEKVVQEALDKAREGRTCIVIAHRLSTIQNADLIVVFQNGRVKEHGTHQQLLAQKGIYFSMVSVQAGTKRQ
compound,measurement,setting,value
"C[C@H]1O[C@@H](O[C@H]2[C@@H](O)C[C@H](O[C@H]3[C@@H](O)C[C@H](O[C@H]4CC[C@@]5(C)[C@H](CC[C@@H]6[C@@H]5C[C@@H](O)[C@]5(C)[C@@H](C7=CC(=O)OC7)CC[C@]65O)C4)O[C@@H]3C)O[C@@H]2C)C[C@H](O)[C@@H]1O [Digoxin, reference compound]","Papp B→A at 120 min, 10 µM",P-gp [1],15.4 ± 0.4 ×10⁻⁶ cm/s
"C[C@]12CC[C@@H]3c4ccc(O)cc4CC[C@H]3[C@@H]1CC[C@@H]2O[C@@H]1O[C@H](C(=O)O)[C@@H](O)[C@H](O)[C@H]1O [Estradiol‐17β‐glucuronide, reference compound]",Uptake ratio,OATP1B1,38.5 ± 5.5
same,Uptake ratio,OATP1B3,5.82 ± 0.62
"C[C@]12CC[C@@H]3c4ccc(OS(=O)(=O)O)cc4CC[C@H]3[C@@H]1CCC2=O [Estrone sulfate, reference compound]",Uptake ratio,OAT3 [2],16.1 ± 0.45
"CN(C)C(=N)N=C(N)N [Metformin, reference compound]",Uptake ratio,OCT2 [3],3.49 ± 0.26
COc1ccc2[nH]c([S+]([O-])Cc3ncc(C)c(OC)c3C)nc2c1 (stereo not shown) [Omeprazole],"fold induction at 2 days, 50 µM",CYP1A2; Fold induction of activity,42 ± 6.4
same,"fold induction at 2 days, 50 µM",CYP1A2; Fold induction of mRNA level,82 ± 94
"CCCN(CCC)S(=O)(=O)c1ccc(C(=O)O)cc1 [Probenecid, reference compound]",activity at 50 µM,OAT3 [4],12.5 ± 8%
"C=C[C@H]1C[N@@]2CC[C@H]1C[C@@H]2[C@@H](O)c1ccnc2ccc(OC)cc12 [Quinidine, reference compound]",activity at 500 µM,OCT2 [5],31.5 ± 8%
CC[C@H](Nc1ncnc2[nH]cnc12)c1nc2cccc(F)c2c(=O)n1-c1ccccc1 [idelalisib],Increase of exposure of midazolam,CYP3A,5.15 fold
CCOc1cc2ncc(C#N)c(Nc3ccc(OCc4ccccn4)c(Cl)c3)c2cc1NC(=O)/C=C/CN(C)C [neratinib],Increase of AUC of digoxin,P-gp [6],32%
same,Increase of mean digoxin C max,P-gp [6],54%
"CCC1(c2ccccc2)C(=O)NC(=O)NC1=O [phenobarbital, reference compound]","fold induction at 2 days, 1000 µM",CYP2B6,6.4 ± 3
same,"fold induction at 2 days, 1000 µM",CYP2B6; probe bupropion,9.6 ± 5.4
"Lucifer Yellow [LFY, reference compound]",Uptake ratio of LFY,human BCRP [7],14.9 fold
same,Uptake ratio (ATP versus AMP),human BCRP [8],17.4 ± 0.31 fold
